# Source: publication PMC9013261 (Bioorganic Chemistry, 2021)
# pIC50: −log10 of the molar value.
# How the values were obtained:
# [1] = system: Staphylococcus epidermidis ATCC 35984 (methicillin-resistant); experiment: Broth microdilution antibacterial assay; type: cell-based; conditions: ATCC35984, read-out: MIC S. epidermidis ATCC 35984
# 3CLpro of SARS-CoV-2 = 3CLpro of SARS-CoV-2 (Severe acute respiratory syndrome coronavirus 2, UniProt P0DTD1); experiment: biochemical
# [2] = system: Pseudomonas aeruginosa PAO1 (chloramphenicol-resistant); experiment: Broth microdilution antibacterial assay; type: cell-based; conditions: PAO1, read-out: MIC P. aeruginosa PAO1
# [3] = system: Klebsiella pneumoniae ATCC 10031; experiment: Broth microdilution antibacterial assay; type: cell-based; conditions: ATCC10031, read-out: MIC K. pneumonia ATCC 10031
# Bacillus subtilis 168 = experiment: Broth microdilution antibacterial assay; type: cell-based; conditions: Bacillus subtilis, 168, read-out: MIC B. subtilis 168
Structure (SMILES),MIC [1],pIC50 (3CLpro of SARS-CoV-2),MIC [2],MIC [3],MIC (Bacillus subtilis 168)
"CCCCCCCCCCCc1cc(O)cc(O)c1 [Compound 3, 5-undecyl-1,3-benzenediol]",2 µg/mL,< 4.00,> 64 µg/mL,8 µg/mL,1 µg/mL
"CCCCCCCCCCCCCCc1cc(O)cc(O)c1 [Compound 5, 5-tetradecyl-1,3-benzenediol]",> 64 µg/mL,< 4.00,> 64 µg/mL,> 64 µg/mL,> 64 µg/mL
"CCCCCCCC/C=C\CCCc1cc(O)cc(O)c1 [Compound 7, (Z)-5-(trideca-4-enyl)resorcinol]",4 µg/mL,< 4.00,> 64 µg/mL,> 64 µg/mL,1 µg/mL
